Assay results as given in patent US9113629B2, “4-amino-6-(4-substituted-phenyl)-picolinates and 6-amino-2-(4-substituted-phenyl)-pyrimidine-4-carboxylates and their use as herbicides” (DOW AGROSCIENCES LLC, priority 2013, dated 2015).
Where two headings read alike, the source gives them in different places.

Assays:
[1] = system: Key Grass and Sedge Weeds as well as Grass Crops; test: Post-emergent Test II herbicidal activity (Table 6); type: in vivo; conditions: post-emergence, 336 h; for pest or weed control at 70 g/ha: 70 g ai/ha; for pest or weed control at 140 g/ha: 140 g ai/ha
Procedure, shortened: (§1)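 Visual injury ratings (0 = no injury, 100 = complete kill) were taken 14 d after treatment, relative to untreated plants. Seedlings at the first–second true leaf stage received overhead spray at 187 L/ha; the highest rate was serially diluted to ½×, ¼×, ⅛× and 1/16×.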

[2] = system: Key Broadleaf Weed and Crop Species; test: Post-emergent Test II herbicidal activity (Table 5); type: in vivo; conditions: post-emergence, 336 h, 14 days after application; for pest or weed control at 70 g/ha: application rate 70 g ai/ha; for pest or weed control at 140 g/ha: application rate 140 g ai/ha
Procedure, shortened: as §1

[3] = CYPES: yellow nutsedge (Cyperus esculentus), read-out: Visual Growth Reduction (%) 14 Days After Application, CYPES
[4] = DIGSA: crabgrass (Digitaria sanguinalis), read-out: Visual Growth Reduction (%) 14 Days After Application, DIGSA
[5] = ECHCG: barnyardgrass (Echinochloa crus-galli), read-out: Visual Growth Reduction (%) 14 Days After Application, ECHCG
[6] = ORYSA: rice (Oryza sativa), crop, read-out: Visual Growth Reduction (%) 14 Days After Application, ORYSA
[7] = SETFA: giant foxtail (Setaria faberi), read-out: Visual Growth Reduction (%) 14 Days After Application, SETFA
[8] = SORVU: grain sorghum (Sorghum vulgare), read-out: Visual Growth Reduction (%) 14 Days After Application, SORVU
[9] = TRZSS (wheat, Triticum aestivum), crop, read-out: Visual Growth Reduction (%) 14 Days After Application, TRZSS
[10] = ZEAMX: maize, corn (Zea mays), crop, read-out: Visual Growth Reduction (%) 14 Days After Application, ZEAMX
[11] = ABUTH: velvetleaf (Abutilon theophrasti), read-out: Visual Growth Reduction (%) 14 Days After Application, ABUTH
[12] = AMARE: redroot pigweed (Amaranthus retroflexus), read-out: Visual Growth Reduction (%) 14 Days After Application, AMARE
[13] = BRSNN: oilseed-rape, canola (Brassica napus), read-out: Visual Growth Reduction (%) 14 Days After Application, BRSNN
[14] = CHEAL: lambsquarters (Chenopodium album), read-out: Visual Growth Reduction (%) 14 Days After Application, CHEAL
[15] = EPHHL: wild poinsettia (Euphorbia heterophylla), read-out: Visual Growth Reduction (%) 14 Days After Application, EPHHL
[16] = HELAN: sunflower (Helianthus annuus), read-out: Visual Growth Reduction (%) 14 Days After Application, HELAN
[17] = VIOTR: wild pansy (Viola tricolor), read-out: Visual Growth Reduction (%) 14 Days After Application, VIOTR

Question: What does the source list for `N#Cc1ccc(-c2nc(C(=O)O)c(Cl)c(N)c2F)cc1F` [Compound 156]?
Answer: pest or weed control at 70 g/ha [1, 3]: 60 to 74%; pest or weed control at 140 g/ha [1, 3]: 85 to 94%; pest or weed control at 70 g/ha [1, 4]: 60 to 74%; pest or weed control at 140 g/ha [1, 4]: 75 to 84%; pest or weed control at 70 g/ha [1, 5]: 75 to 84%; pest or weed control at 140 g/ha [1, 5]: 85 to 94%; pest or weed control at 70 g/ha [1, 6]: 0 to 29%; pest or weed control at 140 g/ha [1, 6]: 0 to 29%; pest or weed control at 70 g/ha [1, 7]: 85 to 94%; pest or weed control at 140 g/ha [1, 7]: 95 to 100%; pest or weed control at 70 g/ha [1, 8]: 60 to 74%; pest or weed control at 140 g/ha [1, 8]: 60 to 74%; pest or weed control at 70 g/ha [1, 9]: 45 to 59%; pest or weed control at 140 g/ha [1, 9]: 60 to 74%; pest or weed control at 70 g/ha [1, 10]: 75 to 84%; pest or weed control at 140 g/ha [1, 10]: 75 to 84%; pest or weed control at 70 g/ha [2, 11]: 60 to 74%; pest or weed control at 140 g/ha [2, 11]: 75 to 84%; pest or weed control at 70 g/ha [2, 12]: 95 to 100%; pest or weed control at 140 g/ha [2, 12]: 95 to 100%; pest or weed control at 70 g/ha [2, 13]: 75 to 84%; pest or weed control at 140 g/ha [2, 13]: 85 to 94%; pest or weed control at 70 g/ha [2, 14]: 95 to 100%; pest or weed control at 140 g/ha [2, 14]: 95 to 100%; pest or weed control at 70 g/ha [2, 15]: 85 to 94%; pest or weed control at 140 g/ha [2, 15]: 85 to 94%; pest or weed control at 70 g/ha [2, 16]: 95 to 100%; pest or weed control at 140 g/ha [2, 16]: 95 to 100%; pest or weed control at 70 g/ha [2, 17]: 60 to 74%; pest or weed control at 140 g/ha [2, 17]: 60 to 74%
